pIC50: −log10 of the molar value.
Target: Sodium-dependent dopamine transporter (Homo sapiens, UniProt Q01959)
Assay: Ability to inhibit human dopamine uptake by the human dopamine transporter in EM4 cells stably infected with Flag HA-hDAT
Type: functional, cell-based

Sequence of Sodium-dependent dopamine transporter (Q01959 whole entry): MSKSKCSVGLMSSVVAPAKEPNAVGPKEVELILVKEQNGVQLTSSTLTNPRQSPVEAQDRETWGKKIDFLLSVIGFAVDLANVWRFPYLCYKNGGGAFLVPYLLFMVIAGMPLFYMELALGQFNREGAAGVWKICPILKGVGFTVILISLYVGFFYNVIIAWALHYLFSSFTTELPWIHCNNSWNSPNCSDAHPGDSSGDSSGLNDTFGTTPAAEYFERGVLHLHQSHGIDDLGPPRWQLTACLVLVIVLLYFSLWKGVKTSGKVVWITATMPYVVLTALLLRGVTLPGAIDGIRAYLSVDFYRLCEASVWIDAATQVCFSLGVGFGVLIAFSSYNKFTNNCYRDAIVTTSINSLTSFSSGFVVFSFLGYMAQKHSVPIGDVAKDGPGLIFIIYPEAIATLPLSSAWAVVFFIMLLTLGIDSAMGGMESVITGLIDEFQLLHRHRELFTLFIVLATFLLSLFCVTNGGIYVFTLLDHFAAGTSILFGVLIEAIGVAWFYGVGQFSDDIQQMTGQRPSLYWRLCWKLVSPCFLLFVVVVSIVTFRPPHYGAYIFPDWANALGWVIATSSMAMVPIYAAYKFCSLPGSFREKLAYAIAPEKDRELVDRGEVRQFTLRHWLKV

Row | SMILES | pIC50
1 | COC(=O)[C@@H]1C2CCC(C[C@@H]1c1ccc(Cl)c(Cl)c1)N2 (some centres not stated) | 8.85
2 | COC(=O)[C@@H]1C2CCC(C[C@@H]1c1ccc(Cl)c(Cl)c1)N2C (some centres not stated) | 8.96
